US20080249186A1, “Fungicidal Composition” (GIVAUDAN SA, priority 2005, published 2008)

What was measured:
Fusarium oxysporum = test: Checkerboard titration / MIC determination in microtiter plates (turbidity, fungal growth); format: cell-based; conditions: agent alone; percent by weight
Description: (§1) A test system was set up with two of most common soil inhabitating plant pathogenic fungi causing high losses in green houses: Fusarium oxysporum, and Rhizoctonia solani. Garlic oil was used as the source of allyl sulphides.
(§2) The synergistic action between this oil and eugenol or thymol was tested in Checkerboard titration experiments. The ‘checkerboard’ is the inhibitory pattern found for multiple combinations of two antimicrobial agents in concentrations equal to, above, and below their minimal inhibitory concentration for the organism being tested. These multiple combinations of antimicrobial agents are prepared in microtiter plates. The checkerboard consists then of columns which contain the same amount of one antimicrobial which is diluted along the x-axis and rows which each contain the same amount of the other antimicrobial (diluted along the y-axis). Thus, each well of the microtiter plate is a unique combination of the two agents.
(§3) A method of quantitating synergy is the ‘fractional inhibitory concentration’ (FIC) index. For each row, the FIC index is calculated from the lowest concentration of agents necessary to inhibit growth. The FIC of each agent is derived by dividing the concentration of the agent present in that well of the microtiter plate by the minimal inhibitory concentration (MIC) needed of that agent alone to inhibit the organism. The FIC index is then the sum of these values for both antibacterial agents in that well of the microtiter plate. Fractional inhibitory concentration indices are then used as measure of synergy. The FIC index is calculated for each row as follows:
(§4) where MICa, MICb are the minimal inhibitory concentration (MIC) of compound A and B in the mixture, and MICA, MICB are the MIC of A and B when used alone. When the lowest FIC index obtained in a microtiter plate in this way is less than 1, the combination is synergistic. When the FIC index is 1, the combination is additive.
(§5) All examples were made using routine techniques for MIC determination. The dilutions of the active agents were prepared in dimethylsulfoxide, and 2 μl aliquots of the different stock solutions of each of the two agents were then added to individual wells of the microtiter plates to obtain the desired checkerboard as described above. Fungi were swabbed from agar plates and suspended in 10 ml of Sabouraud liquid medium. The fungal suspensions was diluted 20 fold in the same growth medium. To each well of the microtiter plates 100 μl of such a diluted suspension of the test organism was distributed. The plates were covered with plastic films and incubated for 48 h at 30° C. with shaking at 250 rpm. The turbidity was then measured with a microplate reader to determine fungal growth. […]

Rhizoctonia solani = test: as above; format: cell-based; conditions: agent alone; percent by weight
Description: as §1, §2, §3, §4, §5

Row | Structure (SMILES) | MIC of pure compounds, F. oxysporum (Fusarium oxysporum) [%] | MIC of pure compounds, R. solani (Rhizoctonia solani) [%]
1 | C=CCc1ccc(O)c(OC)c1 [eugenol, 4-hydroxy-3-methoxy-1-allylbenzene] | 0.05 | 0.025
2 | Cc1ccc(C(C)C)c(O)c1 [thymol, 1-methyl-3-hydroxy-4-iso-propylbenzene] | 0.05 | 0.0125
